# pIC50: −log10 of the molar value. Like-named read-outs stand apart in the source and are kept apart here.
# How the values were obtained:
# [1] = test system: Porphyromonas gingivalis 381; test: Antimicrobial screening by colorimetric WST-1 assay against P. gingivalis; type: cell-based; details: P. gingivalis 381, FIG. 2, read-out: growth inhibition
# Method: (§1) The following bacterial strains were used in these studies: Porphyromonas gingivalis 381, Actinomyces naeslundii ATCC 49340, Streptococcus sanguinis ATCC 10556, Veillonella parvula ATCC 10790, Aggregatibacter actinomycetemcomitans JP2, and Fusobacterium nucleatum ATCC 25586. All bacterial strains were initially grown on blood agar plates (BBL, Becton Dickinson, Sparks, Md., USA) from a frozen stock and incubated in appropriate aerobic (for S. sanguinis) or anaerobic (for P. gingivalis, A. naeslundii, V. parvula, A. actinomycetemcomitans, and F. nucleatum) conditions at 37° C. for 24 h or 3 days, respectively. Then, a liquid culture was started for each strain in 3 mL of Brain Hearth infusion (BHI) broth alone or supplemented with 5 μg/mL of hemin and 1 μg/mL of menadione in the case of P. gingivalis. Overnight cultures were inoculated in fresh broth and allowed to reach logarithmic growth for 3-4 h, time at which antimicrobial activity of different treatments was evaluated.
# Initial screening for testing the antimicrobial effect of zafirlukast derivatives (4a, 4b, 11a, 11b, 12a, 21a, 21b, 22a, 22b, 23a, and 23b) was performed using the colorimetric water-soluble tetrazolium-1 (WST-1) assay, which serves as a surrogate marker for cell proliferation and viability. Bacterial strains (10^6/well) grown logarithmically in broth (90 μL) using 96-wells plates, were exposed to different treatments for 2 h and then 15 μL of WST-1 reagent (Roche, Manheim, Germany) were added to each well. Plates were incubated for 2 h under appropriate culture conditions and then absorbance was measured at 450 nm, with a reference wavelength of 600 nm, using SpectraMax M2 plate reader (Molecular Devices, Sunnyvale, Calif., USA). The percentage of inhibitory effect (i.e., % growth inhibition) was calculated using the optical densities (ODs) of bacterial metabolic activity, under different experimental conditions according to the following formula: 100×[OD (control)−OD (experimental)/OD (control)]. For P. gingivalis, control cultures were treated only with medium and experimental cultures treated with DMSO (vehicle for zafirlukast and its derivatives) and 1 μg/mL of the antibiotic tetracycline. When tested against A. naeslundii, A. actinomycetemcomitans, S. sanguinis, V. parvula, and F. nucleatum control cultures were treated only with medium and experimental cultures were treated with DMSO (vehicle for zafirlukast and its derivatives), antibiotic penicillin/streptomycin −1× (100 U/mL of penicillin and 100 μg/mL of streptomycin) for Gram-positives and 1 μg/mL of tetracycline for Gram-negative anaerobic bacteria.
# [2] = test system: OKF6 oral epithelial cells (OKF6/hTERT); test: cells; type: cell-based; details: 24 h; for pIC50: Homo sapiens, OKF6; for Dead (%) / Percentage of OKF6 cells alive / Alive (%): human
# Method: Cytotoxic effect of zafirlukast derivatives in oral epithelial cells. The immortalized oral keratinocyte cell line OKF6/hTERT (OKF6) was used for viability assays in response to zafirlukast derivatives 22b, 23a, and 23b as previously reported. 3, ^4 Cells were cultured in keratinocyte-serum free medium (SFM) supplemented with bovine pituitary extract (25 μg/mL) and recombinant epidermal growth factor (0.2 ng/mL) (Ker-SFM). Cells were maintained at 37° C. in a humidified incubator with 5% CO2.
# […] Cells were then harvested by trypsinization, washed with DMEM medium supplemented with 5% fetal bovine serum at 1100 rpm and resuspended in fresh Ker-SFM. Equal volumes of cell suspension and trypan blue were mixed and 10 μL evaluated in the automated cell counter (Countess II FL) (Life Technologies, Singapure) to determine percentage of alive and death cells. These experiments were performed in two independent experiments by duplicate. […] The IC50 values were calculated by using the Quest Graph™ IC50 calculator (ATT Bioquest, Inc, https://www.aatbio.com/tools/ic50-calculator).
# [3] = test system: OKF6 oral epithelial cells (OKF6/hTERT); test: Cell viability of oral epithelial cells (apoptosis and necrosis) by flow cytometry, FITC-Annexin V / propidium iodide; type: cell-based, human; details: 24 h
# Method: Cytotoxic effect of zafirlukast derivatives in oral epithelial cells. The immortalized oral keratinocyte cell line OKF6/hTERT (OKF6) was used for viability assays in response to zafirlukast derivatives 22b, 23a, and 23b as previously reported. 3, ^4 Cells were cultured in keratinocyte-serum free medium (SFM) supplemented with bovine pituitary extract (25 μg/mL) and recombinant epidermal growth factor (0.2 ng/mL) (Ker-SFM). Cells were maintained at 37° C. in a humidified incubator with 5% CO2. Cytotoxic effects of zafirlukast derivatives were confirmed by flow cytometry analysis (FACS). After different treatments, attached OKF6 cells were harvested by trypsinization and mixed with cells that were previously rescued from supernatants. Cells were washed with PBS at 1100 rpm for 5 min and further labeled with 5 μL of FITC-Annexin V and 5 μL of propidium iodide (BD Pharmingen, San Jose, Calif.) for 15 min at room temperature. Labeled cells were analyzed by FACS, with at least 10,000 events read at wavelengths averaging 488 nm for excitation and 530 nm for emission in a flow cytometer FACSCalibur (Becton Dickinson, San Jose, Calif.).
# [4] = test system: Porphyromonas gingivalis 381; test: Bactericidal effect on P. gingivalis by colony forming units (CFU) assay; type: cell-based; details: 24 h exposure, 7 days incubation, FIG. 4; for bacteriostatic or bactericidal: 100 μM, CFU
# Method: as §1
# P. gingivalis (10^6/well) grown in appropriate medium and anaerobic conditions was exposed to zafirlukast derivatives dissolved in DMSO for 24 h and further 50 μL of bacterial culture dilutions (1:400) were spread onto blood agar plates. Numbers of CFUs were obtained after 7 days of incubation in appropriate anaerobic conditions.
# [5] = 0-100 μM in triplicate, Quest Graph IC50 calculator, read-out: IC50 (OKF6 cell viability)
smiles,measurement,setting,value
COc1ccc(Cc2c[nH]c3ccccc23)cc1C(=O)NS(=O)(=O)c1ccccc1 [Compound 21a],inhibition at 10 µM,[1],~40%
COc1ccc(Cc2cn(C)c3ccccc23)cc1C(=O)NS(=O)(=O)c1ccccc1C [Compound 22b],inhibition at 1 µM,[1],15 to 40%
same,inhibition at 10 µM,[1],90 to 100%
same,pIC50,[2]; [5],4.80
same,Dead (%),[2]; 1 μM,8.5 ± 1.7%
same,Percentage of OKF6 cells alive,[2]; 1 μM,69.3 ± 9.6%
same,Percentage of OKF6 cells alive,[2]; 2.5 μM,41.0 ± 1.0%
same,Percentage of OKF6 cells alive,[2]; 5 μM,66.0 ± 5.6%
same,Alive (%),[2]; 10 μM,40.8 ± 16.6%
same,Dead (%),[2]; 10 μM,59.3 ± 16.6%
same,Percentage of OKF6 cells alive,[2]; 10 μM,38.3 ± 4.9%
same,Percentage of OKF6 cells alive,[2]; 15 μM,41.0 ± 17.3%
same,Percentage of OKF6 cells alive,[2]; 20 μM,22.7 ± 11.7%
same,Percentage of OKF6 cells alive,[2]; 25 μM,47.0 ± 20.0%
same,Percentage of OKF6 cells alive,[2]; 50 μM,33.0 ± 15.1%
same,Percentage of OKF6 cells alive,[2]; 100 μM,12.3 ± 11.0%
same,Apoptosis (%),"[3]; human, 1 μM",23.7 ± 16.6%
same,Necrosis (%),"[3]; human, 1 μM",2.16 ± 1.62%
same,Viable,"[3]; human, 1 μM",74.1 ± 18.1%
same,Apoptosis (%),"[3]; human, 10 μM",29.6 ± 19.1%
same,Necrosis (%),"[3]; human, 10 μM",1.37 ± 0.39%
same,Viable,"[3]; human, 10 μM",69.1 ± 18.9%
COc1ccc(Cc2cn(C)c3ccc([N+](=O)[O-])cc23)cc1C(=O)NS(=O)(=O)c1ccccc1C [Compound 23b],inhibition at 1 µM,[1],15 to 40%
same,inhibition at 10 µM,[1],90 to 100%
same,pIC50,[2]; [5],< 4.00
same,pIC50,"[2]; estimated beyond the highest concentration tested (100 μM), read-out: IC50 (OKF6 cell viability), estimated",~3.64
same,Dead (%),[2]; 1 μM,17.3 ± 9.5%
same,Percentage of OKF6 cells alive,[2]; 1 μM,83.7 ± 9.1%
same,Percentage of OKF6 cells alive,[2]; 2.5 μM,87.7 ± 3.8%
same,Percentage of OKF6 cells alive,[2]; 5 μM,87.0 ± 2.6%
same,Alive (%),[2]; 10 μM,48.3 ± 17.5%
same,Dead (%),[2]; 10 μM,51.8 ± 17.5%
same,Percentage of OKF6 cells alive,[2]; 10 μM,83.0 ± 5.3%
same,Percentage of OKF6 cells alive,[2]; 15 μM,79.0 ± 5.3%
same,Percentage of OKF6 cells alive,[2]; 20 μM,75.3 ± 3.8%
same,Percentage of OKF6 cells alive,[2]; 25 μM,77.0 ± 2.6%
same,Percentage of OKF6 cells alive,[2]; 50 μM,69.0 ± 7.5%
same,Percentage of OKF6 cells alive,[2]; 100 μM,58.7 ± 4.2%
same,Apoptosis (%),"[3]; human, 1 μM",24.8 ± 13.9%
same,Necrosis (%),"[3]; human, 1 μM",1.08 ± 0.17%
same,Viable,"[3]; human, 1 μM",74.4 ± 13.8%
same,Apoptosis (%),"[3]; human, 10 μM",35.8 ± 21.3%
same,Necrosis (%),"[3]; human, 10 μM",2.23 ± 1.18%
same,Viable,"[3]; human, 10 μM",61.7 ± 22.2%
same,bacteriostatic or bactericidal,[4],bactericidal
COc1ccc(Cc2c[nH]c3ccccc23)cc1C(=O)NS(=O)(=O)c1ccccc1C [Compound 21b],inhibition at 10 µM,[1],~80%
COc1cc(C(=O)NS(=O)(=O)c2ccccc2C)ccc1Cc1cn(C)c2ccccc12 [Compound 4b],inhibition at 100 µM,[1],> 60%
Cc1ccccc1S(=O)(=O)NC(=O)c1ccc(Cc2c[nH]c3ccccc23)cc1 [Compound 11b],inhibition at 10 µM,[1],~90%
Cn1cc(Cc2ccc(C(=O)NS(=O)(=O)c3ccccc3)cc2)c2ccccc21 [Compound 12a],inhibition at 10 µM,[1],90 to 100%
COc1ccc(Cc2cn(C)c3ccc([N+](=O)[O-])cc23)cc1C(=O)NS(=O)(=O)c1ccccc1 [Compound 23a],inhibition at 1 µM,[1],15 to 40%
same,inhibition at 10 µM,[1],90 to 100%
same,pIC50,[2]; [5],4.27
same,Dead (%),[2]; 1 μM,20.5 ± 16.4%
same,Percentage of OKF6 cells alive,[2]; 1 μM,68.0 ± 5.0%
same,Percentage of OKF6 cells alive,[2]; 2.5 μM,70.7 ± 10.3%
same,Percentage of OKF6 cells alive,[2]; 5 μM,55.3 ± 8.1%
same,Alive (%),[2]; 10 μM,73.8 ± 4.1%
same,Dead (%),[2]; 10 μM,26.3 ± 4.1%
same,Percentage of OKF6 cells alive,[2]; 10 μM,49.0 ± 16.1%
same,Percentage of OKF6 cells alive,[2]; 15 μM,50.3 ± 9.5%
same,Percentage of OKF6 cells alive,[2]; 20 μM,48.0 ± 6.1%
same,Percentage of OKF6 cells alive,[2]; 25 μM,54.0 ± 7.8%
same,Percentage of OKF6 cells alive,[2]; 50 μM,45.3 ± 13.1%
same,Percentage of OKF6 cells alive,[2]; 100 μM,15.7 ± 7.1%
same,Apoptosis (%),"[3]; human, 1 μM",38.5 ± 27.5%
same,Necrosis (%),"[3]; human, 1 μM",0.69 ± 0.46%
same,Viable,"[3]; human, 1 μM",60.9 ± 27.4%
same,Apoptosis (%),"[3]; human, 10 μM",44.2 ± 26.9%
same,Necrosis (%),"[3]; human, 10 μM",2.81 ± 2.31%
same,Viable,"[3]; human, 10 μM",53.2 ± 29.0%
same,bacteriostatic or bactericidal,[4],bactericidal
same,inhibition at 1 µM,"[4]; Porphyromonas gingivalis, 381, 1 μM, read-out: growth inhibition (CFU)",~60%
same,inhibition at 10 µM,"[4]; Porphyromonas gingivalis, 381, 10 μM, read-out: growth inhibition (CFU)",100%
"COc1cc(C(=O)NS(=O)(=O)c2ccccc2C)ccc1Cc1cn(C)c2ccc(NC(=O)OC3CCCC3)cc12 [Zafirlukast, zafirlukast, reference compound]",Alive (%),[2]; 25 μM,17.3 ± 5.2%
same,Dead (%),[2]; 25 μM,82.8 ± 5.2%
same,Apoptosis (%),"[3]; 25 μM, FACS (Table 3, FIG. 7)",90.8 ± 2.5%
same,Necrosis (%),"[3]; 25 μM, FACS (Table 3, FIG. 7)",0.65 ± 0.58%
same,Viable,"[3]; 25 μM, FACS (Table 3, FIG. 7)",8.53 ± 3.08%
COc1cc(C(=O)NS(=O)(=O)c2ccccc2)ccc1Cc1cn(C)c2ccccc12 [Compound 4a],inhibition at 100 µM,[1],> 60%
O=C(NS(=O)(=O)c1ccccc1)c1ccc(Cc2c[nH]c3ccccc23)cc1 [Compound 11a],inhibition at 10 µM,[1],~40%

# Source: patent publication US11535592B2, “Antimicrobial compounds, compositions, and method” (University of Kentucky Research Foundation, priority 2019, dated 2022)
